According to patent US10758534B2 (Vertex Pharmaceuticals Incorporated, priority 2014, dated 2020):

Target: T1, F508del (Homo sapiens, UniProt P13569, DEL508-508)
T1 construct: expressed in transfected cells
Assay: Protocol 2: FRET membrane potential optical assay (VIPR), identification of correction compounds
Assay type: cell-based
Conditions: Table 3; compounds of Table 1 as modulators of CFTR activity; protocol not stated
Outline: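 FRET read-out (CC2-DMPE donor, DiSBAC2(3) voltage-sensitive acceptor) of membrane depolarization on VIPR II. Corrector candidates incubated 16 hrs at 37° C. with NIH3T3 cells expressing F508del; temperature correction at 27° C. as positive control; stimulation by 10 μM forskolin, 20 μM genistein, chloride-free gluconate bath.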

T1 sequence (P13569 with tags, fused parts or gaps DEL508-508): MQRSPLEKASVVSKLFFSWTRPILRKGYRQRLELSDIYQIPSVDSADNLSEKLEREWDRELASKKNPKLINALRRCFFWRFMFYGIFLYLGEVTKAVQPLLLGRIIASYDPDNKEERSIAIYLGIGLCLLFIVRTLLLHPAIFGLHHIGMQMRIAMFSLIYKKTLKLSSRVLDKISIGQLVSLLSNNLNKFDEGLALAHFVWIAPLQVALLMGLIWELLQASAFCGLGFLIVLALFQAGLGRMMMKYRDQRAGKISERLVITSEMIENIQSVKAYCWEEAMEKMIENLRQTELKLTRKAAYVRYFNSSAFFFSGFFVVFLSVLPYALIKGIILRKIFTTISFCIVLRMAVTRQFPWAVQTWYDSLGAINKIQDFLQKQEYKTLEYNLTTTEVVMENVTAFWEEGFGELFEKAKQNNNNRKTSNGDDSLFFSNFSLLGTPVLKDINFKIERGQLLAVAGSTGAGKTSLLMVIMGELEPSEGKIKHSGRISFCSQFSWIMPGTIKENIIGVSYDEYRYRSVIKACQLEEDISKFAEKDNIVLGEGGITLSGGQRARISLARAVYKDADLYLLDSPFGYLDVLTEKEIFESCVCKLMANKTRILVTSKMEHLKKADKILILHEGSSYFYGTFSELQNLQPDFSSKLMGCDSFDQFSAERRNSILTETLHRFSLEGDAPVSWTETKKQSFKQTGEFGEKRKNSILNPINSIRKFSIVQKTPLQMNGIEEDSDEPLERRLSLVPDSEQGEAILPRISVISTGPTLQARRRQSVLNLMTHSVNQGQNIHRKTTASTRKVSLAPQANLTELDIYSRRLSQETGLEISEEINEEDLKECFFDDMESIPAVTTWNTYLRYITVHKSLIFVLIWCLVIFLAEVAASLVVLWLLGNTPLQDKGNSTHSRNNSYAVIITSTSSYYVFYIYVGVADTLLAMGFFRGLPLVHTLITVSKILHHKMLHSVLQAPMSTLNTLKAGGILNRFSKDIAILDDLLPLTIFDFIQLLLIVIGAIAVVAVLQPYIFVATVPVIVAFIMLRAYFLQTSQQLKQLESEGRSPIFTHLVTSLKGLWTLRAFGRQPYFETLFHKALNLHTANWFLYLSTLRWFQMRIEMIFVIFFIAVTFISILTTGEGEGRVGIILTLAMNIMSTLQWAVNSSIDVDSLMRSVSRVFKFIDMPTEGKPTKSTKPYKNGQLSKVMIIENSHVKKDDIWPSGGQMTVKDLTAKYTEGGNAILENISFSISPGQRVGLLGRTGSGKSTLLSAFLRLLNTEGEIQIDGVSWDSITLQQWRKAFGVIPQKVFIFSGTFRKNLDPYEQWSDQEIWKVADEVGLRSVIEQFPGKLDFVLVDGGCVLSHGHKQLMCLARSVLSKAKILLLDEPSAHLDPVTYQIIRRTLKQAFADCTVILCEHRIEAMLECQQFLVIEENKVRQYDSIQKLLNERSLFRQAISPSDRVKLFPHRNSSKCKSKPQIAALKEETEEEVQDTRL

| Structure (SMILES) | EC30 |
| --- | --- |
| CC(C)COc1cc(F)cc(-c2ccc(C(=O)NS(=O)(=O)c3cccc(N)n3)c(N3CC4C(C3)C4(C)C)n2)c1 (stereo not drawn) [Compound 609, N-[(6-amino-2-pyridyl)sulfonyl]-2-(6,6-dimethyl-3-azabicyclo[3.1.0]hexan-3-yl)-6-(3-fluoro-5-isobutoxy-phenyl)pyridine-3-carboxamide] | +++ (“+++” means <3 uM) |
| Cc1ccc(-c2ccc(C(=O)NS(=O)(=O)c3cc[nH]n3)c(Oc3ccc(C)cc3C)n2)cc1 [Compound 610, 2-(2,4-dimethylphenoxy)-6-(p-tolyl)-N-(1H-pyrazol-3-ylsulfonyl)pyridine-3-carboxamide] | +++ (“+++” means <3 uM) |
| CC(C)COc1cc(F)cc(-c2ccc(C(=O)NS(=O)(=O)c3cccc(N)n3)c(N3CCC(C(C)(C)C)C3)n2)c1 (stereo not drawn) [Compound 611, N-[(6-amino-2-pyridyl)sulfonyl]-2-(3-tert-butylpyrrolidin-1-yl)-6-(3-fluoro-5-isobutoxy-phenyl)pyridine-3-carboxamide] | +++ (“+++” means <3 uM) |
| COc1ncc(-c2ccc(C(=O)NS(=O)(=O)c3cccc(N)n3)c(Oc3c(C)cc(C)cc3C)n2)cc1F [Compound 612, N-[(6-amino-2-pyridyl)sulfonyl]-6-(5-fluoro-6-methoxy-3-pyridyl)-2-(2,4,6-trimethylphenoxy)pyridine-3-carboxamide] | +++ (“+++” means <3 uM) |
| CC(C)COc1cc(F)cc(-c2ccc(C(=O)NS(=O)(=O)c3cccc(N)n3)c(N3CCCC3C(C)(C)C)n2)c1 (stereo not drawn) [Compound 613, N-[(6-amino-2-pyridyl)sulfonyl]-2-(2-tert-butylpyrrolidin-1-yl)-6-(3-fluoro-5-isobutoxy-phenyl)pyridine-3-carboxamide] | +++ (“+++” means <3 uM) |
| Cc1ccc(-c2ccc(C(=O)NS(=O)(=O)c3cccc(N)n3)c(N3CC(C)CC3(C)C)n2)c(C)c1 (stereo not drawn) [Compound 614, N-[(6-amino-2-pyridyl)sulfonyl]-6-(2,4-dimethylphenyl)-2-(2,2,4-trimethylpyrrolidin-1-yl)pyridine-3-carboxamide] | +++ (“+++” means <3 uM) |
| CCC1CCN(c2nc(-c3cc(F)cc(OCC(C)C)c3)ccc2C(=O)NS(=O)(=O)c2cccc(N)n2)CC1 [Compound 615, N-[(6-amino-2-pyridyl)sulfonyl]-2-(4-ethyl-1-piperidyl)-6-(3-fluoro-5-isobutoxy-phenyl)pyridine-3-carboxamide] | +++ (“+++” means <3 uM) |
| Cc1nc(OCC(C)C)ccc1-c1ccc(C(=O)NS(=O)(=O)c2cccc(N)n2)c(N2CC(C)CC2(C)C)n1 (stereo not drawn) [Compound 616, N-[(6-amino-2-pyridyl)sulfonyl]-6-(6-isobutoxy-2-methyl-3-pyridyl)-2-(2,2,4-trimethylpyrrolidin-1-yl)pyridine-3-carboxamide] | +++ (“+++” means <3 uM) |
| CC1CC(C)CN(c2nc(C(C)(C)C)ccc2C(=O)NS(=O)(=O)c2cccc(N)n2)C1 (stereo not drawn) [Compound 617, N-[(6-amino-2-pyridyl)sulfonyl]-6-tert-butyl-2-(3,5-dimethyl-1-piperidyl)pyridine-3-carboxamide] | +++ (“+++” means <3 uM) |
| CCC1(COc2nc(-c3cc(F)cc(OCC(C)C)c3)ccc2C(=O)NS(=O)(=O)c2cccc(N)n2)COC1 [Compound 618, N-[(6-amino-2-pyridyl)sulfonyl]-2-[(3-ethyloxetane-3-yl)methoxy]-6-(3-fluoro-5-isobutoxy-phenyl)pyridine-3-carboxamide] | ++ (“++” means between 3 uM and 10 uM) |
| CCC1CCN(c2nc(-c3ccc(OC(C)C)nc3)ccc2C(=O)NS(=O)(=O)c2cccc(N)n2)CC1 [Compound 619, N-[(6-amino-2-pyridyl)sulfonyl]-2-(4-ethyl-1-piperidyl)-6-(6-isopropoxy-3-pyridyl)pyridine-3-carboxamide] | +++ (“+++” means <3 uM) |
| CC(C)COc1cc(F)cc(-c2ccc(C(=O)NS(=O)(=O)c3ccccc3)c(N3CC(C)CC3(C)C)n2)c1 (stereo not drawn) [Compound 620, N-(benzenesulfonyl)-6-(3-fluoro-5-isobutoxy-phenyl)-2-(2,2,4-trimethylpyrrolidin-1-yl)pyridine-3-carboxamide] | +++ (“+++” means <3 uM) |
| Cc1cc(C)c(Oc2nc(C3(C(F)(F)F)CC3)ccc2C(=O)NS(=O)(=O)c2cccc(N)n2)c(C)c1 [Compound 621, N-[(6-amino-2-pyridyl)sulfonyl]-6-[1-(trifluoromethyl)cyclopropyl]-2-(2,4,6-trimethylphenoxy)pyridine-3-carboxamide] | +++ (“+++” means <3 uM) |
| Cc1cc(C)c(Oc2nc(-c3ccc(F)cc3O)ccc2C(=O)NS(=O)(=O)c2cccc(N)n2)c(C)c1 [Compound 622, N-[(6-amino-2-pyridyl)sulfonyl]-6-(4-fluoro-2-hydroxy-phenyl)-2-(2,4,6-trimethylphenoxy)pyridine-3-carboxamide] | +++ (“+++” means <3 uM) |
| Cc1ccc(-c2nc(C(C)(C)C)ccc2C(=O)NS(=O)(=O)c2ccccc2C#N)cc1 [Compound 623, 6-tert-butyl-N-(2-cyanophenyl)sulfonyl-2-(p-tolyl)pyridine-3-carboxamide] | ++ (“++” means between 3 uM and 10 uM) |
| COc1cc(-c2ccc(C(=O)NS(=O)(=O)c3ccc[nH]c3=O)c(Oc3c(C)cc(C)cc3C)n2)ccc1F [Compound 624, 6-(4-fluoro-3-methoxy-phenyl)-N-[(2-oxo-1H-pyridin-3-yl)sulfonyl]-2-(2,4,6-trimethylphenoxy)pyridine-3-carboxamide] | ++ (“++” means between 3 uM and 10 uM) |
| CC(C)Oc1ccc(-c2ccc(C(=O)NS(=O)(=O)c3cccc(N)n3)c(N3CCC(c4ccccc4)C3C)n2)cn1 (stereo not drawn) [Compound 625, N-[(6-amino-2-pyridyl)sulfonyl]-6-(6-isopropoxy-3-pyridyl)-2-(2-methyl-3-phenyl-pyrrolidin-1-yl)pyridine-3-carboxamide] | +++ (“+++” means <3 uM) |
| CC(C)(C)c1ccc(C(=O)NS(=O)(=O)c2cccc(N)n2)c(N2CCC[C@H](c3ccccc3)C2)n1 [Compound 626, N-[(6-amino-2-pyridyl)sulfonyl]-6-tert-butyl-2-[(3R)-3-phenyl-1-piperidyl]pyridine-3-carboxamide] | +++ (“+++” means <3 uM) |
| Cc1cc(C)c(Cn2c(C(=O)NS(=O)(=O)c3ccnc(N)c3)cc3ccccc32)c(C)c1 [Compound 627, N-[(2-amino-4-pyridyl)sulfonyl]-1-[(2,4,6-trimethylphenyl)methyl]indole-2-carboxamide] | + (“+” means greater than 10 uM) |
| Cc1cc(C)c(CN2CCc3ccccc3CC2C(=O)NS(=O)(=O)c2cc[nH]n2)c(C)c1 (stereo not drawn) [Compound 628, N-(1H-pyrazol-3-ylsulfonyl)-3-[(2,4,6-trimethylphenyl)methyl]-1,2,4,5-tetrahydro-3-benzazepine-4-carboxamide] | +++ (“+++” means <3 uM) |
| COc1cc(C)cc(OC)c1-c1ccc(C(=O)NS(=O)(=O)c2cccc(N)n2)c(Oc2c(C)cc(C)cc2C)n1 [Compound 629, N-[(6-amino-2-pyridyl)sulfonyl]-6-(2,6-dimethoxy-4-methyl-phenyl)-2-(2,4,6-trimethylphenoxy)pyridine-3-carboxamide] | +++ (“+++” means <3 uM) |
| CC(C)c1ccc(-c2ccc(C(=O)NS(=O)(=O)c3cccc(N)n3)c(N3C[C@@H](C)CC3(C)C)n2)cc1 [Compound 630, N-[(6-amino-2-pyridyl)sulfonyl]-6-(4-isopropylphenyl)-2-[(4S)-2,2,4-trimethylpyrrolidin-1-yl]pyridine-3-carboxamide] | +++ (“+++” means <3 uM) |
| CC(C)Cn1cc(-c2ccc(C(=O)NS(=O)(=O)c3cccc(N)n3)c(N3CC(C)CC3(C)C)n2)cn1 (stereo not drawn) [Compound 631, N-[(6-amino-2-pyridyl)sulfonyl]-6-(1-isobutylpyrazol-4-yl)-2-(2,2,4-trimethylpyrrolidin-1-yl)pyridine-3-carboxamide] | +++ (“+++” means <3 uM) |
| Cc1ccc(-c2nc(C(C)(C)C)ccc2C(=O)NS(=O)(=O)c2ccn[nH]2)cc1 [Compound 632, 6-tert-butyl-2-(p-tolyl)-N-(1H-pyrazol-5-ylsulfonyl)pyridine-3-carboxamide] | ++ (“++” means between 3 uM and 10 uM) |
| Cc1cc(C)c(Oc2nc(-n3nc(C(F)(F)F)cc3C)ccc2C(=O)NS(=O)(=O)c2cccc(N)n2)c(C)c1 [Compound 633, N-[(6-amino-2-pyridyl)sulfonyl]-6-[5-methyl-3-(trifluoromethyl)pyrazol-1-yl]-2-(2,4,6-trimethylphenoxy)pyridine-3-carboxamide] | +++ (“+++” means <3 uM) |
| Cc1ccc(Oc2nc3c(cc2C(=O)NS(=O)(=O)c2ccc[nH]c2=O)CCCC3(C)C)c(C)c1 [Compound 634, 2-(2,4-dimethylphenoxy)-8,8-dimethyl-N-[(2-oxo-1H-pyridin-3-yl)sulfonyl]-6,7-dihydro-5H-quinoline-3-carboxamide] | +++ (“+++” means <3 uM) |
| Cc1ccc(-c2nc3c(cc2C(=O)NS(=O)(=O)c2ccc(N)nc2)CCCC3(C)C)cc1 [Compound 635, N-[(6-amino-3-pyridyl)sulfonyl]-8,8-dimethyl-2-(p-tolyl)-6,7-dihydro-5H-quinoline-3-carboxamide] | + (“+” means greater than 10 uM) |
| Cc1ccc(-c2nc(C(C)(C)C)ccc2C(=O)NS(=O)(=O)c2cccnc2N)cc1 [Compound 636, N-[(2-amino-3-pyridyl)sulfonyl]-6-tert-butyl-2-(p-tolyl)pyridine-3-carboxamide] | ++ (“++” means between 3 uM and 10 uM) |
| CCOc1ccc(C(=O)NS(=O)(=O)c2cccc(N)n2)c(Oc2c(C)cc(C)cc2C)n1 [Compound 637, N-[(6-amino-2-pyridyl)sulfonyl]-6-ethoxy-2-(2,4,6-trimethylphenoxy)pyridine-3-carboxamide] | ++ (“++” means between 3 uM and 10 uM) |
| Cc1cc(C)c(Oc2nc(-c3ccc(CC#N)cc3)ccc2C(=O)NS(=O)(=O)c2cccc(N)n2)c(C)c1 [Compound 638, N-[(6-amino-2-pyridyl)sulfonyl]-6-[4-(cyanomethyl)phenyl]-2-(2,4,6-trimethylphenoxy)pyridine-3-carboxamide] | ++ (“++” means between 3 uM and 10 uM) |
